Results reported in ChEMBL document CHEMBL4177586, “Small molecule adjuvants that suppress both chromosomal and mcr-1 encoded colistin-resistance and amplify colistin efficacy in polymyxin-susceptible bacteria” (Bioorg Med Chem, 2017).

What was measured:
Acinetobacter baumannii [1] = experiment: Antimicrobial activity against Acinetobacter baumannii SM1536 incubated for overnight duration by CLSI based method; assay type: functional, organism-based
Klebsiella pneumoniae [2] = experiment: Antimicrobial activity against Klebsiella pneumoniae 2210291 expressing mcr1 gene incubated for overnight duration by CLSI based method; assay type: functional, organism-based
Acinetobacter baumannii [3] = experiment: Antimicrobial activity against Acinetobacter baumannii ATCC 17978 expressing mcr1 gene incubated for overnight duration by CLSI based method; assay type: functional, organism-based
Escherichia coli [4] = experiment: Antimicrobial activity against Escherichia coli ATCC 25922 expressing mcr1 gene incubated for overnight duration by CLSI based method; assay type: functional, organism-based
Escherichia coli [5] = experiment: Antimicrobial activity against Escherichia coli YD626 incubated for overnight duration by CLSI based method; assay type: functional, organism-based
Acinetobacter baumannii [6] = experiment: Antimicrobial activity against Acinetobacter baumannii ATCC 17978 incubated for overnight duration by CLSI based method; assay type: functional, organism-based
Klebsiella pneumoniae [7] = experiment: Antimicrobial activity against Klebsiella pneumoniae 2210291 incubated for overnight duration by CLSI based method; assay type: functional, organism-based
Escherichia coli [8] = experiment: Antimicrobial activity against Escherichia coli YD626 expressing mcr1 gene incubated for overnight duration by CLSI based method; assay type: functional, organism-based
Acinetobacter baumannii [9] = experiment: Antimicrobial activity against Acinetobacter baumannii SM1536 expressing mcr1 gene incubated for overnight duration by CLSI based method; assay type: functional, organism-based
Escherichia coli [10] = experiment: Antimicrobial activity against Escherichia coli ATCC 25922 incubated for overnight duration by CLSI based method; assay type: functional, organism-based
Acinetobacter baumannii [11] = experiment: Potentiation of colistin-induced antimicrobial activity against Acinetobacter baumannii ATCC 17978 expressing mcr1 gene assessed as reduction in colistin MIC at 60 uM incubated for overnight duration by CLSI based method relative to colistin alone control; assay type: functional

Row | Compound | MIC (Acinetobacter baumannii [1]) | MIC (Klebsiella pneumoniae [2]) | MIC (Acinetobacter baumannii [3]) | MIC (Escherichia coli [4]) | MIC (Escherichia coli [5]) | MIC (Acinetobacter baumannii [6]) | MIC (Klebsiella pneumoniae [7]) | MIC (Escherichia coli [8]) | MIC (Acinetobacter baumannii [9]) | MIC (Escherichia coli [10]) | fold change (FC) (Acinetobacter baumannii [11])
1 | COLISTIN | 2 µg/mL | 16 µg/mL | 16 µg/mL | 8 µg/mL | 1 µg/mL | 2 µg/mL | 1 µg/mL | 4 µg/mL | 64 µg/mL | 1 µg/mL | –
2 | O=C(NCCc1c[nH]c2ccccc12)c1cc(Cl)c(Cl)[nH]1 | – | – | – | – | – | – | – | – | – | – | 32
